Where two headings read alike, the source gives them in different places.
Key:
[1] = biological target: T1, COX-2 (Mus musculus, UniProt Q05769); assay: Assessment of COX-2 activity in LPS-stimulated J774 cells (PGE2 radioimmunoassay); format: cell-based, murine; details: for COX-1/COX-2 Selectivity Index (IC50 ratio): Table 6, Formula Ib; for IC50: read-out: COX-2 IC50
T1 construct: lipopolysaccharide (LPS, 10 μg/mL) to induce COX-2; endogenous in cells; host or cells: J774 murine monocyte/macrophage cell line, LPS-stimulated
T1 sequence (Q05769 18-604): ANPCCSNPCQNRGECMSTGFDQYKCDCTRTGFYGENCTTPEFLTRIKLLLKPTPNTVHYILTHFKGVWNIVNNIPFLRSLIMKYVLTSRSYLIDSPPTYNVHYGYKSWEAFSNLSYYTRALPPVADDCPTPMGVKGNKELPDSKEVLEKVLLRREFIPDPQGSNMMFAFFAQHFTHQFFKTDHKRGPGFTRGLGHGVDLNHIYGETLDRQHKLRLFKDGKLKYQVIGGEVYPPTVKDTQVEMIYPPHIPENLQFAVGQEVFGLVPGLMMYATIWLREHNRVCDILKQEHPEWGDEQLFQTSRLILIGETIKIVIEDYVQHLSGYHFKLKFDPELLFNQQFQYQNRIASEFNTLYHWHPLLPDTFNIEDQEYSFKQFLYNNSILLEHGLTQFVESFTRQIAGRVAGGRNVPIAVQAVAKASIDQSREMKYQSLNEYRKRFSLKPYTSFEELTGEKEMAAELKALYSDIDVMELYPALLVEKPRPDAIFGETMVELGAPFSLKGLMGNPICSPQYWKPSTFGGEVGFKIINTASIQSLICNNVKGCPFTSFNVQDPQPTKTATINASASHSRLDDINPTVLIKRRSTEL
Method: Cells were stimulated for 24 h with E. coli lipopolysaccharide (LPS, 10 μg/mL) to induce COX-2, in the absence or presence of test compounds, at the concentrations previously reported. The supernatants were collected for the measurement of PGE2 by radioimmunoassay.
(§1) Analysis. Throughout the time the experiments lasted, triplicate wells were used for the various conditions of treatment. Results are expressed as the mean, for 3 experiments, of the % inhibition of PGE2 production by test compounds with respect to control samples. Data fit was obtained using the sigmoidal dose-response equation (variable slope). The IC50 were calculated by GraphPad Instat program (GraphPad software).

[2] = biological target: T2, COX-1 (Mus musculus, UniProt P22437); assay: Assessment of COX-1 activity in J774 cells (arachidonic acid, PGE2 radioimmunoassay); format: cell-based, murine
T2 construct: endogenous in cells; host or cells: J774 murine monocyte/macrophage cell line
T2 sequence (P22437 27-602): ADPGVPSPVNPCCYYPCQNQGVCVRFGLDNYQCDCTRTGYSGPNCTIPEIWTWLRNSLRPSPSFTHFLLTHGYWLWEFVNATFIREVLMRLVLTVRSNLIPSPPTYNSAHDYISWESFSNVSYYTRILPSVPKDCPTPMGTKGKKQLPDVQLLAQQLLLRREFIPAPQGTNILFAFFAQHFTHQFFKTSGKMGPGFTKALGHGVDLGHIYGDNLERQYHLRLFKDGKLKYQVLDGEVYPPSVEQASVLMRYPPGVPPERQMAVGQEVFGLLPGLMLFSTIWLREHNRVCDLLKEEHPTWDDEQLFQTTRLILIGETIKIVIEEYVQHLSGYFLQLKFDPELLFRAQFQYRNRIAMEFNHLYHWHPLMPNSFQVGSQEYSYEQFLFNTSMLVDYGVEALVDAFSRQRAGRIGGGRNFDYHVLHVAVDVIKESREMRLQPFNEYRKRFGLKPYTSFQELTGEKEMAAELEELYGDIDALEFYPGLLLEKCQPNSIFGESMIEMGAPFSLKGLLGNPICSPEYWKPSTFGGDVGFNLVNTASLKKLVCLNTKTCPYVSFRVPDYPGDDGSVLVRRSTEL
Method: Stock solutions of the reference standard or of the test compounds were prepared in dimethyl sulphoxide, and an equivalent amount of dimethyl sulphoxide was included in control samples. At the end of the incubation the supernatants were collected for the measurement of PGE2 by radioimmunoassay.
as §1

Compound	IC50 ([2]; Table 8, Formula I-c)	IC50 ([1]; Table 8, Formula I-c)	IC50 ([2]; Table 11, Formula I-e)	COX-2 % of inhibition at 1.10^−5 M [1]	further results
CCOC(=O)C(O)c1cc(-c2ccc(S(C)(=O)=O)cc2)n(-c2cccc(F)c2)c1C (single isomer, unassigned; (+)) [Example 9a, (+)-Ethyl[2-hydroxy-2-[1-(3-fluoro)phenyl-2-methyl-5-(4-methylsulphonyl)phenyl-1H-pyrrol-3-yl]]acetate]					COX-1/COX-2 Selectivity Index (IC50 ratio) [1]: >1300
CCOC(=O)C(O)c1cc(-c2ccc(S(C)(=O)=O)cc2)n(-c2cccc(F)c2)c1C (single isomer, unassigned; (-)) [Example 9b, (−)-Ethyl[2-hydroxy-2-[1-(3-fluoro)phenyl-2-methyl-5-(4-methylsulphonyl)phenyl-1H-pyrrol-3-yl]]acetate]					COX-1/COX-2 Selectivity Index (IC50 ratio) [1]: >650
CCNC(=O)Cc1cc(-c2ccc(S(C)(=O)=O)cc2)n(-c2ccccc2)c1C [Example 14, N-Ethyl-[2-methyl-5-(4-methylsulphonyl)phenyl-1-phenyl-1H-pyrrol-3-yl]acetamide]	> 100000 nM	350 nM			
Cc1c(CC(=O)N(C)Cc2ccccc2)cc(-c2ccc(S(C)(=O)=O)cc2)n1-c1ccccc1 [Example 16, N-Benzyl-N-methyl-[2-methyl-5-(4-methylsulphonyl)phenyl-1-phenyl-1H-pyrrol-3-yl]acetamide]	> 100000 nM	170 nM			
COCCc1cc(-c2ccc(S(C)(=O)=O)cc2)n(-c2ccc(F)cc2)c1C [Example 23, [1-(4-Fluoro)phenyl-2-methyl-5-(4-methylsulphonyl)phenyl-3-(2-methoxyethyl)]-1H-pyrrole]					IC50 ([2]; Table 9, Formula I-d): > 100000 nM; IC50 ([1]; Table 9, Formula I-d): 18 nM
COCCc1cc(-c2ccc(S(C)(=O)=O)cc2)n(-c2ccc(C(F)(F)F)cc2)c1C [Example 26, [2-Methyl-5-(4-methylsulphonyl)phenyl-3-(2-methoxyethyl)-1-(4-trifluoromethyl)phenyl]-1H-pyrrole]					IC50 ([2]; Table 9, Formula I-d): > 100000 nM; IC50 ([1]; Table 9, Formula I-d): 49 nM

Now from value to molecule, other results behind:

IC50 ([2]; Table 8, Formula I-c)	IC50 ([1]; Table 8, Formula I-c)	IC50 ([2]; Table 11, Formula I-e)	COX-2 % of inhibition at 1.10^−5 M [1]	Compound	further results
> 100000 nM	90 nM			CNC(=O)Cc1cc(-c2ccc(S(C)(=O)=O)cc2)n(-c2ccc(C(F)(F)F)cc2)c1C [Example 17, N-Methyl-[2-methyl-5-(4-methylsulphonyl)phenyl-1-(4-trifluoromethyl)phenyl-1H-pyrrol-3-yl]acetamide]	
> 100000 nM	190 nM			CCNC(=O)Cc1cc(-c2ccc(S(C)(=O)=O)cc2)n(-c2ccc(C(F)(F)F)cc2)c1C [Example 18, N-Ethyl-[2-methyl-5-(4-methylsulphonyl)phenyl-1-(4-trifluoromethyl)phenyl-1H-pyrrol-3-yl]acetamide]	
> 100000 nM	470 nM			Cc1c(CC(=O)N(C)Cc2ccccc2)cc(-c2ccc(S(C)(=O)=O)cc2)n1-c1ccc(C(F)(F)F)cc1 [Example 19, N-Benzyl-N-methyl-[2-methyl-5-(4-methylsulphonyl)phenyl-1-(4-trifluoromethyl)phenyl-1H-pyrrol-3-yl]acetamide]	
		> 100000 nM	97%	CCC(=O)OCCc1cc(-c2ccc(S(C)(=O)=O)cc2)n(-c2ccc(F)cc2)c1C [Example 29, 2-(1-(4-Fluorophenyl)-2-methyl-5-(4-methylsulphonyl)phenyl-1H-pyrrol-3-yl)ethyl propionate]	
		> 100000 nM	86%	CCCC(=O)OCCc1cc(-c2ccc(S(C)(=O)=O)cc2)n(-c2ccc(F)cc2)c1C [Example 30, 2-(1-(4-fluorophenyl)-2-methyl-5-(4-methylsulphonyl)phenyl-1H-pyrrol-3-yl)ethyl butanoate]	
		> 100000 nM	76%	Cc1c(CCOC(=O)c2ccccc2)cc(-c2ccc(S(C)(=O)=O)cc2)n1-c1ccc(F)cc1 [Example 31, 2-(1-(4-fluorophenyl)-2-methyl-5-(4-methylsulphonyl)phenyl-1H-pyrrol-3-yl)ethyl benzoate]	
		> 100000 nM	64%	Cc1c(CCOC(=O)c2ccccc2F)cc(-c2ccc(S(C)(=O)=O)cc2)n1-c1ccc(F)cc1 [Example 32, 2-(1-(4-fluorophenyl)-2-methyl-5-(4-methylsulphonyl)phenyl-1H-pyrrol-3-yl)ethyl 2-fluorobenzoate]	
